Here are results for 4 compounds from ChEMBL document CHEMBL1128980, “(R)-3-(6-chloro-1-isopropylbenzimidazole-4-carboxamido)quinuclidine: A high affinity ligand for the (R)-zacopride binding site” (Bioorg Med Chem Lett, 1996).

Experiment [1] has as its target T1, 5-hydroxytryptamine receptor 3A (Homo sapiens, UniProt P46098).
T1 sequence (P46098 whole entry): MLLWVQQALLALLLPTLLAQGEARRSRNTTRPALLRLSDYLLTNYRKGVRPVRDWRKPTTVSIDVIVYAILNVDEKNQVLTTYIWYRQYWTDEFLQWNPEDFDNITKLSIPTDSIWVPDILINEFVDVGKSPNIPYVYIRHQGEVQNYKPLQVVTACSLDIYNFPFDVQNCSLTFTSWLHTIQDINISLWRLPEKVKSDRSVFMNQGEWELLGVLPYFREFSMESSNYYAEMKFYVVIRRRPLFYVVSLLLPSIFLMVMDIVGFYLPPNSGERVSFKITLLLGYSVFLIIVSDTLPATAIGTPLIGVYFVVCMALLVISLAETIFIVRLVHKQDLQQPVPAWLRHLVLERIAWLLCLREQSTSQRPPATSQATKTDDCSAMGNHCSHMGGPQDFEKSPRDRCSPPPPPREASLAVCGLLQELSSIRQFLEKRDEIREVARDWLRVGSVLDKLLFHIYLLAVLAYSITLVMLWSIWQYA
Kind of experiment: Binding affinity for 5-hydroxytryptamine 3 receptor by displacement of [3H]-BRL 43694 from NG-108-15 cell membranes.

The target of experiment [2] is T1, 5-hydroxytryptamine receptor 3A. Kind of experiment: Binding affinity for 5-hydroxytryptamine 3 receptor by displacement of [3H](R)-zacopride from ondansetron-treated NG-108-15 cell membranes. For orientation: In a radioligand displacement assay an active substance lowers the binding of a labelled ligand.
The target of experiment [3] is 5-hydroxytryptamine receptor 4 (Cavia porcellus, UniProt O70528). As to the kind of experiment: Binding affinity for 5-hydroxytryptamine 4 receptor by displacement of [3H]GR-113808 from guinea pig brain striatum.
5-hydroxytryptamine receptor 4, sequence (O70528 whole entry): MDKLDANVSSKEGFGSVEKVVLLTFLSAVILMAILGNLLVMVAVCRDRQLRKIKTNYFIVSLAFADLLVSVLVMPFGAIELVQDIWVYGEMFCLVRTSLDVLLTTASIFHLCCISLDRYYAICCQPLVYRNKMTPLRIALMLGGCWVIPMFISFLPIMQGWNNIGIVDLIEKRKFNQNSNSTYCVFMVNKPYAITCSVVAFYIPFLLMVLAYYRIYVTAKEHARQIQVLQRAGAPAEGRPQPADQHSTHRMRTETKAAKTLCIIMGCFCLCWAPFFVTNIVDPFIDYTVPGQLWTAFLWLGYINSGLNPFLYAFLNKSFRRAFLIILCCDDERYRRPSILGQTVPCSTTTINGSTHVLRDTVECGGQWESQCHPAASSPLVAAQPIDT
The target of experiment [4] is T2, Serotonin 3 (5-HT3) receptor (Rattus norvegicus, UniProt P35563+Q9JJ16).
T2 sequence (P35563 whole entry): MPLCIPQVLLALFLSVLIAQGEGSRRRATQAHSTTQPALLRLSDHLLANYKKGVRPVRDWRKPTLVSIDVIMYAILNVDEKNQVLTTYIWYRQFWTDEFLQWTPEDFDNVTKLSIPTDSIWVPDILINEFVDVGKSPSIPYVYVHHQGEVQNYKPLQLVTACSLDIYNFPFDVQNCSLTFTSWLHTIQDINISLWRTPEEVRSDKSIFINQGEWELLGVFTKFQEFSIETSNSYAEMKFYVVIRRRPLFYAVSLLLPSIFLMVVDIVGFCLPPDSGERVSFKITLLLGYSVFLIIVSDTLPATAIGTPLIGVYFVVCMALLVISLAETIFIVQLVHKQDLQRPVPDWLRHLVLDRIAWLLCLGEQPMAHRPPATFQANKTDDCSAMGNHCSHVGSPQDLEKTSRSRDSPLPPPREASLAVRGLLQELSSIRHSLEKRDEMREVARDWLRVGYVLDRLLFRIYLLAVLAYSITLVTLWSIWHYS
T2 sequence (Q9JJ16 whole entry): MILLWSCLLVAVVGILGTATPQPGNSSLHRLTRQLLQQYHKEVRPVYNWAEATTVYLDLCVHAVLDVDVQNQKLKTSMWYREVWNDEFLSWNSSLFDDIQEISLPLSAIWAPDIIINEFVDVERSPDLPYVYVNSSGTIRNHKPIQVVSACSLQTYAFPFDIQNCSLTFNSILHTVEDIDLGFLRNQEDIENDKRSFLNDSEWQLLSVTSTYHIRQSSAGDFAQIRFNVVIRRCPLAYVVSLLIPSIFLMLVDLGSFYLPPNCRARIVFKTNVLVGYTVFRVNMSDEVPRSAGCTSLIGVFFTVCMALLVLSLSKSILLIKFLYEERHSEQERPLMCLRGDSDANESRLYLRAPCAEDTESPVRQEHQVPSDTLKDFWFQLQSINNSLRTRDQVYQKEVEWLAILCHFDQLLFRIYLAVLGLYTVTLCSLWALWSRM
Kind of experiment: Binding affinity for 5-hydroxytryptamine 3 receptor by displacement of racemic [3H]zacopride from rat cortex.

For orientation: Ki means a measure of affinity in units of concentration, obtained from inhibition or displacement. High values mean lower affinity, low ones higher affinity. On to `CC(C)n1cnc2c(C(=O)NC3CC4CCC(C3)N4C)cc(Cl)cc21` (configuration not stated), for which the Ki in experiment [1] is 1 nM; in experiment [2] it was 20 nM; in experiment [3], 158 nM.
`CC(C)n1cnc2c(C(=O)N[C@H]3CN4CCC3CC4)cc(Cl)cc21`: the affinity in experiment [3], expressed as Ki, was 24 nM.
On the same count and under the same terms, with `COc1cc(N)c(Cl)cc1C(=O)N[C@@H]1CN2CCC1CC2` the figure was 437 nM.
Take `COc1cc(N)c(Cl)cc1C(=O)N[C@H]1CN2CCC1CC2` [(R)ZACOPRIDE]: the values for the Ki in experiment [4] and in experiment [3] were 3.72 nM and 2820 nM, respectively.
